In PMC11314410, “Synthesis and Anti-Trypanosoma cruzi Activity of New Pyrazole-Thiadiazole Scaffolds” (Molecules, 2024):
Like-named read-outs stand apart in the source and are kept apart here.

Columns and labels:
[1] = test system: T. cruzi (Dm28c-Luc) in Vero cell cultures; test: Washout (recovery) assay in T. cruzi-infected Vero cell cultures; type: cell-based, Trypanosoma cruzi; conditions: for ALUmean of parasite load in cell monolayer, washout assay: 10 days treatment + 10 days without drug
Procedure: The culture medium of the untreated and treated infected cultures was replaced every 3 or 4 days by a fresh medium with or without the pyrazole-thiadiazole derivatives. The presence of free viable parasites in the culture supernatant was monitored at each medium change by adding luciferin (300 µg/mL) followed by readout on a Glomax microplate reader. At the endpoint, culture supernatants and cell monolayers were evaluated for viable parasites. Positive and negative controls were performed using Bz (150 µM) and DMSO (≤1%), respectively. A minimum of 3 independent experimental runs were performed with 12 replicates.

[2] = Cardiac toxicity in 3D cardiac spheroids (CellTiter-Glo, 72 h); type: cell-based, Swiss webster mice; conditions: Swiss webster, mouse, 3D cardiac microtissue (cardiac spheroids), ATP levels, read-out: Toxicity CC50 3D Culture
Procedure: (§1) Three-dimensional (3D) cardiac cells were obtained as previously described. Briefly, isolated cardiac muscle cells (2.5 × 10^4 cells/well) were seeded in 96-well U-bottom plates coated with agarose (1%) to form cell aggregates. Cardiac microtissue (7 days in culture) was employed to determine cardiotoxicity and drug efficacy in more complex systems. All animal-use procedures were approved by the Animal Care and Use Committee of Instituto Oswaldo Cruz (license L017/2022-A2).
(§2) The 2D cardiac cultures (5 × 10^4 cells/well) and 3D cardiac microtissues (2.5 × 10^4 cells/well) were incubated for 72 h at 37 °C with pyrazole-thiadiazole candidates followed by ATP detection by CellTiter-Glo [86]. A minimum of 3 independent assays were performed in duplicate.

[3] = test system: Trypomastigotes of T. cruzi (Dm28c-Luc); test: microbe, parasite or virus in culture; type: cell-based, Trypanosoma cruzi; conditions: for IC50 / IC90: Trypanosoma cruzi, Dm28c-Luc, 24 h treatment; for IC50: 24 h, mean ± SD, read-out: Anti-T. cruzi Activity Trypomastigotes IC50; for IC90: read-out: Anti-T. cruzi Activity Trypomastigotes IC90
Procedure: (§3) Genetically modified T. cruzi parasites, of clone Dm28c (TcI) expressing the firefly luciferase enzyme gene (Dm28c-Luc), were kindly provided by Dr. Cristina Henriques. T. cruzi Dm28c-Luc was maintained in a Vero cell cultivated in RPMI 1640 medium supplemented with 10% FBS. At 4-day post-infection (dpi), trypomastigotes, released in the cell culture supernatant, were harvested, followed by sedimentation (4000 rpm/20 min/4 °C) and quantification in a Neubauer chamber. Isolated trypomastigotes were used in the phenotypic screening assays as well as the antiparasitic activity in 3D cardiac microtissues, recovery (washout), and drug combination assays.
Drug screening was performed against clinically relevant forms of T. cruzi (amastigotes and trypomastigotes). Trypomastigotes, Dm28c-Luc (1 × 10^6 parasites/well), were added to 96-well plates and incubated with pyrazole-thiadiazole derivatives or Bz (100–0.41 µM). After 24 h of treatment (37 °C), the viability of the parasites was analyzed by adding a D-Luciferin solution (300 µg/mL) and luminescence was measured in the Glomax microplate reader.

[4] = test system: Intracellular amastigotes of T. cruzi (Dm28c-Luc); test: microbe, parasite or virus in culture; type: cell-based, Trypanosoma cruzi; conditions: for IC50 / IC90: Trypanosoma cruzi; for IC90: read-out: Anti-T. cruzi Activity Intracellular Amastigotes IC90
Procedure: as §3
The activity of pyrazole-thiadiazole derivatives against intracellular amastigotes was evaluated in 24 h-T. cruzi infected Vero cell cultures (1.5 × 10^4 cells/well) at a 10:1 ratio. The cultures were washed and incubated with serial dilutions of the derivatives or Bz (100–0.41 µM). Drug treatment was carried out for 72 h at 37 °C and the parasite viability was determined by luminescence readout after D-Luciferin substrate addition (300 µg/mL). The reading was performed in the Glomax reader. The cell cultures incubated with the culture medium containing dimethylsulphoxide (DMSO; concentration ≤ 1%) were used as the […]. The concentrations required to inhibit parasite viability by 50% (IC50) and 90% (IC90) were calculated using Prism GraphPad software (version 8.2.1). The selectivity index (SI), which measures the window between cytotoxicity (CC50) and anti-T. cruzi activity (IC50), was calculated as CC50/IC50. A minimum of 3 independent assays in duplicate were performed.

Vero cells = test: Toxicity in mammalian cells (CellTiter Glo, 72 h); type: cell-based
Procedure: (§4) Vero cell cultures grown in RPMI 1640 medium containing 10% fetal bovine serum (FBS) were cultured at 37 °C in a humidified atmosphere of 5% CO2 [82]. The cultures were used for drug screening assays and to obtain culture-derived trypomastigotes of T. cruzi.
(§5) Vero cells (1.5 ×10^4 cells/well), cultivated for 24 h at 37 °C in white 96-well plates with clear bottoms, were used to assess the toxicity of the pyrazole-thiadiazole derivatives (series 1 and 2). After washing, the cells were incubated for 72 h at 37 °C with different drug concentrations (500–1.95 μM). Cell viability was measured by adding 20 μL/well of CellTiter Glo reagent (Promega Corporation, Madison, WI, USA). This cell viability kit generates a luminescent signal proportional to the amount of ATP. The luminescence readout was performed using the Glomax Microplate Reader (Promega Corporation, Madison, WI, USA). Thus, the 50% cytotoxicity concentration (CC50), which reduces the cell viability by 50% (CC50), was calculated with Prism GraphPad software (version 8.2.1).

[5] = Toxicity in mammalian cells (CellTiter Glo, 72 h); type: cell-based; conditions: African green monkey, Vero cells; 72 h, ATP levels; read-out: Cytotoxicity Vero Cells CC50
Procedure: as §4, §5

[6] = Cardiac toxicity in 2D cardiac monolayers (CellTiter-Glo, 72 h); type: cell-based, Swiss webster mice; conditions: Swiss webster, mouse, primary cardiac muscle cell monolayers (2D culture), ATP levels
Procedure: The primary culture of heart muscle cells was obtained from fetuses of Swiss webster mice. The heart was removed and the ventricles were fragmented and subjected to dissociation with trypsin and collagenase type II (Worthington Biochemical Corporation, Lakewood, USA) dissociation solution. Cell monolayers were employed to evaluate drug-induced cardiotoxicity.
as §2

[7] = test system: T. cruzi (Dm28c-Luc) intracellular parasites in 3D cardiac spheroids; test: Antiparasitic activity in T. cruzi-infected 3D cardiac microtissues; type: cell-based, Trypanosoma cruzi; conditions: 100 µM, 72 h
Procedure: as §1
Cardiac spheroids (2.5 × 10^4 cells/well), formed after 7 days of cultivation in a U-bottom plate, were infected for 24 h with trypomastigote forms of T. cruzi (Dm28c-Luc) at a ratio of 20:1 parasite-host cell. After washing, the drugs were added at concentrations of IC90, two times IC90, and 100 µM, respecting the CC20 value of cardiac spheroids as the maximum concentration. Bz was added at 100 µM. Luminescence measurements, which reveal the luciferase activity of the viable parasites, were performed after the addition of D-luciferin substrate (300 µg/mL). The luminescent signal was read in the Glomax reader and the results were represented in arbitrary luminescence units (ALU). The fluorescence microscopy images were also acquired from untreated and drug-treated infected 3D microtissues. Three-dimensional cultures were fixed with 4% paraformaldehyde in PBS and labeled with 4′,6-diamidino-2-phenylindole (DAPI). Images were acquired using a Zeiss Axio Imager M2 fluorescence microscope using Axio vision software (version 4.8).

Leishmania = test system: Leishmania; set-up: method as in PMID 32492796; conditions: cited from earlier work
[8] = Vero, read-out: Intracellular Amastigotes pIC50 (converted)
[9] = Dm28c-Luc in Vero cells, 72 h treatment, mean ± SD, read-out: Anti-T. cruzi Activity Intracellular Amastigotes IC50
[10] = Dm28c-Luc in Vero cells, 72 h treatment, mean ± SD

SMILES	Trypomastigotes SI (CC50 of Vero cells/IC50 of trypomastigotes) [3]	IC50 [3] [µM]	IC90 [3] [µM]	IC50 [4, 8] [µM]	IC50 [4, 9] [µM]	IC90 [4, 10] [µM]	CC50 at 72 h [5] [µM]	melting point [°C]	Intracellular Amastigotes SI (CC50 of Vero cells/IC50 of intracellular amastigotes) [4]	other results
Nc1nnc(-c2cnn(-c3ccc([N+](=O)[O-])cc3)c2N)s1 [2k, 5-Amino-2-(5-amino-1-(4-nitrophenyl)-1H-pyrazol-4-yl)-1,3,4-thiadiazole]	>5	> 100	> 100	10.5	10.4 ± 1.21	23.2 ± 4.23	> 500	321 to 323	–	Activity relative to 1c in cell monolayer, washout assay ([1]; 150 µM): 11.8 times; ALUmean of parasite load in cell monolayer, washout assay ([1]; 150 µM): 4845 ± 2419 ALU; Activity relative to 1c in cell monolayer, washout assay ([1]; 300 µM): 19.8 times; Reduction of parasite release vs untreated infected group ([1]; 300 µM, 14 dpi): 93%; ALUmean of parasite load in cell monolayer, washout assay ([1]; 300 µM): 3349 ± 1767 ALU; Prevention of reactivation of infection after drug withdrawal ([1]; washout assay): did not prevent parasite recrudescence; CC50 at 72 h [2]: > 500 µM; CC20 for Vero cell monolayers (Vero cells): > 500 µM; CC50 at 72 h [6]: 191 ± 21 µM; ALUmean (luminescence, parasite load) in 3D cardiac microtissue [7]: 5366 ± 2348 ALU; inhibition at 100 µM ([7]; Trypanosoma cruzi, vs infected untreated, read-out: Inhibition of parasite load in 3D cardiac microtissue): 86%
Nc1nnc(-c2cnn(-c3cccc(F)c3)c2)s1 [1h, 5-Amino-2-(1-(3-fluorophenyl)-1H-pyrazol-4-yl)-1,3,4-thiadiazole]	>5	> 100	> 100	67.6	66.8 ± 3.37	> 70	> 500	302 to 303	>7.86	–
Nc1nnc(-c2cnn(-c3ccc(Br)cc3)c2N)s1 [2i, 5-Amino-2-(5-amino-1-(4-bromophenyl)-1H-pyrazol-4-yl)-1,3,4-thiadiazole]	>5	> 100	> 100	69.2	68.73 ± 0.05	> 70	> 500	286 to 287	>7.58	–
Nc1nnc(-c2cnn(-c3cccc(Cl)c3)c2N)s1 [2b, 5-Amino-2-(5-amino-1-(3-chlorophenyl)-1H-pyrazol-4-yl)-1,3,4-thiadiazole]	>5	> 100	> 100	> 70.8	> 70	> 70	> 500	289 to 291	>7.14	–
Nc1nnc(-c2cnn(-c3ccc(Br)cc3)c2)s1 [1i, 5-Amino-2-(1-(4-bromophenyl)-1H-pyrazol-4-yl)-1,3,4-thiadiazole]	>5	> 100	> 100	28.2	28.4 ± 1.77	> 70	> 500	340 to 341	>17.53	–
C[C@@H]1[C@H](O)[C@@H](C)/C=C/C=C/C=C/C=C/C=C/C=C/C=C/[C@H](O[C@@H]2O[C@H](C)[C@@H](O)[C@H](N)[C@@H]2O)C[C@@H]2O[C@](O)(C[C@@H](O)C[C@@H](O)[C@H](O)CC[C@@H](O)C[C@@H](O)CC(=O)O[C@H]1C)C[C@H](O)[C@H]2C(=O)O [amphotericin B]	–	–	–	–	–	–	–	–	–	EC50 (Leishmania; 2D model): 0.0349 µM; EC50 (Leishmania; 3D macrophage cultures): 0.0523 µM; Increase in the EC50 value of 3D vs 2D macrophage cultures (Leishmania): 33%
Nc1nnc(-c2cnn(-c3ccc(Cl)cc3)c2)s1 [1f, 5-Amino-2-(1-(4-chlorophenyl)-1H-pyrazol-4-yl)-1,3,4-thiadiazole]	>5	> 100	> 100	> 70.8	> 70	> 70	> 500	328 to 330	>7.14	–
Nc1nnc(-c2cnn(-c3ccc(Cl)cc3)c2N)s1 [2f, 5-Amino-2-(5-amino-1-(4-chlorophenyl)-1H-pyrazol-4-yl)-1,3,4-thiadiazole]	>5	> 100	> 100	> 70.8	> 70	> 70	> 500	238 to 240	>7.14	–
Nc1nnc(-c2cnn(-c3ccc(Cl)cc3Cl)c2N)s1 [2c, 5-Amino-2-(5-amino-1-(2,4-dichlorophenyl)-1H-pyrazol-4-yl)-1,3,4-thiadiazole]	>5	> 100	> 100	> 70.8	> 70	> 70	> 500	165 to 167	>7.14	Reduction of the release of trypomastigotes ([1]; washout assay, concentration and day not stated): ≥ 82%
